# Data from patent publication US20090312280A1.
# Assays:
# Colo205 (Colon) = experiment: cell survival / MTT combination cytotoxicity; format: cell-based, human; conditions: Colo205; IC50 cytotoxic agent alone / IC50 combination; Compound 1 at 8x EC50 (360 nM)
# PC-3 (Prostate) = experiment: cell survival / MTT combination cytotoxicity; format: cell-based, human; conditions: PC-3; IC50 cytotoxic agent alone / IC50 combination; Compound 1 at 8x EC50 (360 nM)
# MDA-MB-231 (Breast) = experiment: cell survival / MTT combination cytotoxicity; format: cell-based, human; conditions: IC50 cytotoxic agent alone / IC50 combination, Compound 1 at 8x EC50 (360 nM)
# K562 (Leukemia) = experiment: cell survival / MTT combination cytotoxicity; format: cell-based, human; conditions: IC50 cytotoxic agent alone / IC50 combination, Compound 1 at 4x EC50 (180 nM)
# HT29 (Colon) = experiment: cell survival / MTT combination cytotoxicity; format: cell-based, human; conditions: HT29; IC50 cytotoxic agent alone / IC50 combination; Compound 1 at 8x EC50 (360 nM)
# [1] = test system: Colo205 human colon carcinoma xenografts; experiment: in vivo chemopotentiation, Colo205 xenograft; design: species or system mice
# Protocol: (§1) Experiments 1 to 39 were conducted in mice xenografts. Experiments 40-42 were conducted in rat xenografts. Specifically, irinotecan combination studies were conducted in HT29 and Colo205. Gemcitabine combination studies were conducted in Colo205. Docetaxel combination studies were conducted in Colo205.
# (§2) Gemcitabine and irinotecan are DNA directed cytotoxics known to induce checkpoint activation and subsequent S/G2M-phase arrest. […] Docetaxel is an antimitotics where recent discoveries describe a novel function for CHK1 in the mitotic checkpoint.
# [2] = test system: HT29 human colon carcinoma xenografts; experiment: in vivo chemopotentiation, HT29 xenograft (rat)
# Protocol: as §1, §2
# [3] = test system: HT29 human colon carcinoma xenografts; experiment: in vivo chemopotentiation, HT29 xenograft (mice)
# Protocol: as §1, §2
# [4] = Exp 8, irinotecan 10 mg/kg IP Q3d×4, Compound 1 0 mg/kg
# [5] = Exp 9, irinotecan 10 mg/kg IP Q3d×4 + Compound 1 4 mg/kg IP Q3d×4 24 h after
# [6] = Exp 10, irinotecan 10 mg/kg IP Q3d×4 + Compound 1 20 mg/kg IP Q3d×4 24 h after
# [7] = Exp 11, irinotecan 10 mg/kg IP Q3d×4 + Compound 1 40 mg/kg IP Q3d×4 24 h after
# [8] = Exp 12, irinotecan 10 mg/kg IP Q3d×4, Compound 1 0 mg/kg
# [9] = Exp 13, irinotecan 30 mg/kg IP Q3d×4, Compound 1 0 mg/kg
# [10] = Exp 14, irinotecan 60 mg/kg IP Q3d×4, Compound 1 0 mg/kg
# [11] = Exp 15, irinotecan 10 mg/kg IP Q3d×4 + Compound 1 40 mg/kg IP Q3d×4 24 h after
# [12] = Exp 16, irinotecan 30 mg/kg IP Q3d×4 + Compound 1 40 mg/kg IP Q3d×4 24 h after
# [13] = Exp 17, irinotecan 60 mg/kg IP Q3d×4 + Compound 1 40 mg/kg IP Q3d×4 24 h after
# [14] = Exp 40, irinotecan 100 mg/kg IP Q3d×4, Compound 1 0 mg/kg
# [15] = Exp 41, irinotecan 100 mg/kg IP Q3d×4 + Compound 1 25 mg/kg two hour IV infusion Q3d×4 24 h after
# [16] = Exp 42, irinotecan 100 mg/kg IP Q3d×4 + Compound 1 100 mg/kg two hour IV infusion Q3d×4 24 h after
# [17] = Exp 26, irinotecan 10 mg/kg IP Q3d×4, Compound 1 0 mg/kg
# [18] = Exp 27, irinotecan 10 mg/kg IP Q3d×4 + Compound 1 4 mg/kg IP Q3d×4 24 h after
# [19] = Exp 28, irinotecan 10 mg/kg IP Q3d×4 + Compound 1 20 mg/kg IP Q3d×4 24 h after
# [20] = Exp 29, irinotecan 10 mg/kg IP Q3d×4 + Compound 1 40 mg/kg IP Q3d×4 24 h after
# [21] = Exp 30, irinotecan 10 mg/kg IP Q3d×4, Compound 1 0 mg/kg
# [22] = Exp 31, irinotecan 30 mg/kg IP Q3d×4, Compound 1 0 mg/kg
# [23] = Exp 32, irinotecan 60 mg/kg IP Q3d×4, Compound 1 0 mg/kg
# [24] = Exp 33, irinotecan 10 mg/kg IP Q3d×4 + Compound 1 40 mg/kg IP Q3d×4 24 h after
# [25] = Exp 34, irinotecan 30 mg/kg IP Q3d×4 + Compound 1 40 mg/kg IP Q3d×4 24 h after
# [26] = Exp 35, irinotecan 60 mg/kg IP Q3d×4 + Compound 1 40 mg/kg IP Q3d×4 24 h after
# [27] = Exp 36, irinotecan 50 mg/kg IP Q1w×3, Compound 1 0 mg/kg
# [28] = Exp 37, irinotecan 100 mg/kg IP Q1w×3, Compound 1 0 mg/kg
# [29] = Exp 38, irinotecan 50 mg/kg IP Q1w×3 + Compound 1 40 mg/kg IP twice weekly, 24 and 72 h after, three weeks
# [30] = Exp 39, irinotecan 100 mg/kg IP Q1w×3 + Compound 1 40 mg/kg IP twice weekly, 24 and 72 h after, three weeks
smiles,measurement,setting,value
N.N.O=C([O-])C1(C(=O)[O-])CCC1.[Pt+2] [Carboplatin],PF50 (Potentiation Factor50),Colo205 (Colon),5.4
same,PF50 (Potentiation Factor50),PC-3 (Prostate),3.1
same,PF50 (Potentiation Factor50),MDA-MB-231 (Breast),2.55
same,PF50 (Potentiation Factor50),K562 (Leukemia),1.9
same,PF50 (Potentiation Factor50),HT29 (Colon),3
COc1cccc2c1C(=O)c1c(O)c3c(c(O)c1C2=O)C[C@@](O)(C(=O)CO)C[C@@H]3O[C@H]1C[C@H](N)[C@H](O)[C@H](C)O1 [Doxorubicin],PF50 (Potentiation Factor50),Colo205 (Colon),1.1
same,PF50 (Potentiation Factor50),PC-3 (Prostate),1.5
same,PF50 (Potentiation Factor50),MDA-MB-231 (Breast),2.25
same,PF50 (Potentiation Factor50),K562 (Leukemia),1.1
same,PF50 (Potentiation Factor50),HT29 (Colon),2.2
CCc1c2c(nc3ccc(OC(=O)N4CCC(N5CCCCC5)CC4)cc13)-c1cc3c(c(=O)n1C2)COC(=O)[C@]3(O)CC [Irinotecan],% TGI,[1]; [4],35%
same,Growth delay,[1]; [4],18 days
same,% TGI,[1]; [5],50%
same,% poten TGI,[1]; [5],22%
same,Growth delay,[1]; [5],18 days
same,% TGI,[1]; [6],69%
same,% TTP,[1]; [6],33%
same,% poten TGI,[1]; [6],52%
same,Growth delay,[1]; [6],24 days
same,% TGI,[1]; [7],59%
same,% TTP,[1]; [7],12%
same,% poten TGI,[1]; [7],37%
same,Growth delay,[1]; [7],20.5 days
same,% TGI,[1]; [8],35%
same,Growth delay,[1]; [8],18 days
same,% TGI,[1]; [9],65%
same,Growth delay,[1]; [9],22 days
same,% TGI,[1]; [10],83%
same,Growth delay,[1]; [10],48 days
same,% TGI,[1]; [11],59%
same,% TTP,[1]; [11],12%
same,% poten TGI,[1]; [11],37%
same,Growth delay,[1]; [11],20.5 days
same,% TGI,[1]; [12],73%
same,% TTP,[1]; [12],54%
same,% poten TGI,[1]; [12],24%
same,Growth delay,[1]; [12],34 days
same,% TGI,[1]; [13],91%
same,% TTP,[1]; [13],8%
same,% poten TGI,[1]; [13],47%
same,Growth delay,[1]; [13],52 days
same,% TGI,[2]; [14],45%
same,Growth delay,[2]; [14],4.0 days
same,% TGI,[2]; [15],58%
same,% poten TGI,[2]; [15],23%
same,Growth delay,[2]; [15],4.0 days
same,% TGI,[2]; [16],77%
same,% TTP,[2]; [16],24%
same,% poten TGI,[2]; [16],58%
same,Growth delay,[2]; [16],8.0 days
same,% TGI,[3]; [17],26%
same,Growth delay,[3]; [17],1.75 days
same,% TGI,[3]; [18],26%
same,% TTP,[3]; [18],29%
same,Growth delay,[3]; [18],7.5 days
same,% TGI,[3]; [19],61%
same,% TTP,[3]; [19],39%
same,% poten TGI,[3]; [19],47%
same,Growth delay,[3]; [19],9.5 days
same,% TGI,[3]; [20],57%
same,% TTP,[3]; [20],44%
same,% poten TGI,[3]; [20],42%
same,Growth delay,[3]; [20],10.5 days
same,% TGI,[3]; [21],8%
same,Growth delay,[3]; [21],2.75 days
same,% TGI,[3]; [22],13%
same,Growth delay,[3]; [22],4 days
same,% TGI,[3]; [23],49%
same,Growth delay,[3]; [23],12.5 days
same,% TGI,[3]; [24],22%
same,% TTP,[3]; [24],0%
same,% poten TGI,[3]; [24],15%
same,Growth delay,[3]; [24],1.0 days
same,% TGI,[3]; [25],66%
same,% TTP,[3]; [25],61%
same,% poten TGI,[3]; [25],60%
same,Growth delay,[3]; [25],17.5 days
same,% TGI,[3]; [26],77%
same,% TTP,[3]; [26],28%
same,% poten TGI,[3]; [26],55%
same,Growth delay,[3]; [26],21 days
same,% TGI,[3]; [27],65%
same,Growth delay,[3]; [27],7.5 days
same,% TGI,[3]; [28],70%
same,Growth delay,[3]; [28],11.5 days
same,% TGI,[3]; [29],77%
same,% TTP,[3]; [29],24%
same,% poten TGI,[3]; [29],36%
same,Growth delay,[3]; [29],14 days
same,% TGI,[3]; [30],89%
same,% TTP,[3]; [30],49%
same,% poten TGI,[3]; [30],62%
same,Growth delay,[3]; [30],21 days
CO[C@@]12[C@H](COC(N)=O)C3=C(C(=O)C(C)=C(N)C3=O)N1C[C@@H]1N[C@@H]12 [Mytomicin C],PF50 (Potentiation Factor50),Colo205 (Colon),5.3
same,PF50 (Potentiation Factor50),MDA-MB-231 (Breast),1.2
same,PF50 (Potentiation Factor50),HT29 (Colon),3.7
CCc1c2c(nc3ccc(O)cc13)-c1cc3c(c(=O)n1C2)COC(=O)[C@]3(O)CC [SN-38],PF50 (Potentiation Factor50),Colo205 (Colon),2.1
same,PF50 (Potentiation Factor50),PC-3 (Prostate),1.3
same,PF50 (Potentiation Factor50),MDA-MB-231 (Breast),2.4
same,PF50 (Potentiation Factor50),K562 (Leukemia),1.9
same,PF50 (Potentiation Factor50),HT29 (Colon),3.7
